Test results: the CheMixHub drug solubility set

Assay: xn = mol fraction of the nth substance listed, in the solute-free solvent

O=[N+]([O-])c1cc[nH]n1 + CCO + O
solubility (g/100 g solution)
Conditions | 283.15 K | 288.15 K | 293.15 K | 298.15 K | 303.15 K | 308.15 K | 313.15 K | 318.15 K | 323.15 K
x2 = 0.04165 | 0.265 | 0.347 | 0.44 | 0.528 | 0.709 | 0.854 | 1.16 | 1.49 | 1.89
x2 = 0.08908 | 0.319 | 0.385 | 0.478 | 0.581 | 0.718 | 0.87 | 1.15 | 1.44 | 1.83
x2 = 0.1436 | 0.409 | 0.521 | 0.689 | 0.942 | 1.16 | 1.49 | 1.89 | 2.41 | 3.08
x2 = 0.2068 | 0.482 | 0.6 | 0.75 | 0.956 | 1.18 | 1.48 | 1.87 | 2.34 | 2.97
x2 = 0.2812 | 0.53 | 0.639 | 0.777 | 0.962 | 1.16 | 1.46 | 1.8 | 2.24 | 2.82
x2 = 0.3698 | 1 | 1.2 | 1.45 | 1.71 | 2.08 | 2.5 | 3.05 | 3.86 | 4.83
x2 = 0.4772 | 1.69 | 1.98 | 2.32 | 2.72 | 3.26 | 3.87 | 4.68 | 5.83 | 7.1
x2 = 0.6101 | 2.68 | 3.06 | 3.52 | 4.09 | 4.83 | 5.64 | 6.66 | 8.11 | 9.68
x2 = 0.7788 | 3.98 | 4.51 | 5.09 | 5.8 | 6.58 | 7.79 | 9.11 | 10.7 | 12.4

COC(=O)C1=C(C)NC(C)=C(C(=O)OCC(C)C)C1c1ccccc1[N+](=O)[O-] (centres undefined) + CC#N + O
solubility (g/100 g solution)
Conditions | 278.15 K | 283.15 K | 288.15 K | 293.15 K | 298.15 K | 303.15 K | 308.15 K | 313.15 K | 318.15 K
x2 = 0.04651 | 0.165 | 0.218 | 0.288 | 0.377 | 0.488 | 0.61 | 0.767 | 0.973 | 1.21
x2 = 0.0989 | 0.678 | 0.855 | 1.1 | 1.36 | 1.7 | 2.08 | 2.53 | 3.12 | 3.73
x2 = 0.1583 | 1.3 | 1.62 | 2.02 | 2.51 | 3.07 | 3.73 | 4.57 | 5.46 | 6.5
x2 = 0.2264 | 2.08 | 2.58 | 3.1 | 3.86 | 4.65 | 5.62 | 6.61 | 7.85 | 9.2
x2 = 0.3051 | 2.84 | 3.54 | 4.32 | 5.15 | 6.3 | 7.5 | 8.79 | 10.4 | 12.1
x2 = 0.397 | 3.75 | 4.65 | 5.65 | 6.7 | 8.1 | 9.55 | 11.2 | 13.1 | 15.2
x2 = 0.506 | 4.72 | 5.77 | 6.86 | 8.3 | 9.96 | 11.8 | 13.7 | 15.7 | 18
x2 = 0.6372 | 5.69 | 6.77 | 8.36 | 9.95 | 11.7 | 13.6 | 15.7 | 18.2 | 20.7
x2 = 0.798 | 6.56 | 7.83 | 9.45 | 11.2 | 13.1 | 15.2 | 17.6 | 20.2 | 22.9

Cc1nc(CCl)nc2ccccc12 + CCOC(C)=O + C1CCCCC1
solubility (g/100 g solution)
Conditions | x2 = 0.163 | x2 = 0.321 | x2 = 0.475 | x2 = 0.624 | x2 = 0.768 | x2 = 0.909
281.15 K | 0.0748 | 0.106 | 0.134 | 0.162 | 0.187 | 0.212
286.15 K | 0.102 | 0.139 | 0.176 | 0.21 | 0.244 | 0.276
291.15 K | 0.134 | 0.18 | 0.225 | 0.27 | 0.312 | 0.352
296.15 K | 0.172 | 0.229 | 0.285 | 0.339 | 0.392 | 0.439
301.15 K | 0.22 | 0.29 | 0.357 | 0.42 | 0.481 | 0.539
306.15 K | 0.276 | 0.357 | 0.437 | 0.511 | 0.582 | 0.65
311.15 K | 0.342 | 0.435 | 0.526 | 0.61 | 0.692 | 0.772
316.15 K | 0.418 | 0.523 | 0.623 | 0.718 | 0.81 | 0.898
321.15 K | 0.504 | 0.619 | 0.727 | 0.833 | 0.934 | 1.03
326.15 K | 0.599 | 0.721 | 0.84 | 0.951 | 1.06 | 1.16
331.15 K | 0.704 | 0.833 | 0.955 | 1.07 | 1.19 | 1.3

CCC(C(C)O)n1ncn(-c2ccc(N3CCN(c4ccc(OCC5COC(Cn6cncn6)(c6ccc(F)cc6F)C5)cc4)CC3)cc2)c1=O (centres undefined) + CCOC(C)=O + CCO
solubility (g/100 g solution)
Conditions | 273.15 K | 278.15 K | 283.15 K | 288.15 K | 293.15 K | 298.15 K | 303.15 K | 308.15 K | 313.15 K
x2 = 0.05491 | 0.0447 | 0.057 | 0.0728 | 0.0894 | 0.109 | 0.13 | 0.151 | 0.174 | 0.201
x2 = 0.1156 | 0.0657 | 0.084 | 0.104 | 0.125 | 0.148 | 0.173 | 0.2 | 0.229 | 0.264
x2 = 0.1831 | 0.106 | 0.131 | 0.158 | 0.188 | 0.217 | 0.251 | 0.289 | 0.33 | 0.38
x2 = 0.2585 | 0.144 | 0.174 | 0.207 | 0.243 | 0.28 | 0.323 | 0.37 | 0.422 | 0.484
x2 = 0.3434 | 0.162 | 0.191 | 0.227 | 0.265 | 0.308 | 0.358 | 0.417 | 0.486 | 0.561
x2 = 0.4396 | 0.142 | 0.171 | 0.202 | 0.237 | 0.27 | 0.311 | 0.359 | 0.412 | 0.48
x2 = 0.5496 | 0.112 | 0.137 | 0.163 | 0.192 | 0.221 | 0.253 | 0.285 | 0.321 | 0.36
x2 = 0.6765 | 0.0924 | 0.114 | 0.136 | 0.158 | 0.182 | 0.206 | 0.232 | 0.259 | 0.294
x2 = 0.8247 | 0.0667 | 0.0831 | 0.101 | 0.119 | 0.138 | 0.158 | 0.182 | 0.21 | 0.24

CN1CCN(C(=O)OC2c3nccnc3C(=O)N2c2ccc(Cl)cn2)CC1 (centres undefined) + CC(C)=O + O
solubility (g/100 g solution)
Conditions | x2 = 0.3 | x2 = 0.4 | x2 = 0.5 | x2 = 0.6 | x2 = 0.7 | x2 = 0.8 | x2 = 0.9
288.15 K | 0.188 | 0.322 | 0.515 | 0.825 | 1.17 | 1.47 | 1.48
298.15 K | 0.259 | 0.425 | 0.644 | 1.04 | 1.52 | 1.9 | 1.94
308.15 K | 0.354 | 0.615 | 1.04 | 1.46 | 1.99 | 2.44 | 2.5
318.15 K | 0.545 | 0.801 | 1.35 | 1.88 | 2.53 | 3.29 | 3.5
328.15 K | 0.752 | 1.18 | 1.75 | 2.51 | 3.5 | 4.63 | 4.6

Clc1ncnc2[nH]ccc12 + C1CCOC1 + CCOC(C)=O
solubility (g/100 g solution)
Conditions | 278.15 K | 283.15 K | 288.15 K | 293.15 K | 298.15 K | 303.15 K | 308.15 K | 313.15 K | 318.15 K | 323.15 K
x2 = 0.1937 | 2.62 | 2.95 | 3.32 | 3.75 | 4.21 | 4.72 | 5.25 | 5.79 | 6.4 | 7.07
x2 = 0.3753 | 3.46 | 3.9 | 4.38 | 4.87 | 5.45 | 6.03 | 6.66 | 7.34 | 8.06 | 8.83
x2 = 0.5458 | 4.65 | 5.2 | 5.79 | 6.4 | 7.13 | 7.83 | 8.57 | 9.41 | 10.2 | 11.2
x2 = 0.6272 | 5.34 | 5.93 | 6.58 | 7.23 | 8 | 8.79 | 9.64 | 10.5 | 11.4 | 12.4
x2 = 0.7061 | 5.97 | 6.66 | 7.32 | 8.1 | 8.9 | 9.77 | 10.6 | 11.5 | 12.6 | 13.5
x2 = 0.8573 | 7.35 | 8.08 | 8.82 | 9.69 | 10.6 | 11.6 | 12.5 | 13.5 | 14.6 | 15.7
